In patent US20260083865A1, “PROSTATE SPECIFIC MEMBRANE ANTIGEN (PSMA) LIGANDS AND USE THEREOF” (priority 2022, published 2026):
Read-outs that look alike come from different tables or passages of the source. Numbered stars: 1 amine (or outer) side, 2 acyl side, 3 side chain; on linkers, the order of the positions; unused ones are H or OH. Bridge positions count the residues as written; N and C are the ends. Square brackets hold non-standard residues; d marks the D form. Peptide text beside a SMILES is read from it. * marks the point of attachment. TtdsdLys(DOTA)NH2 = NC(=O)[C@@H](CCCCNC(=O)CN1CCN(CC(=O)O)CCN(CC(=O)O)CCN(CC(=O)O)CC1)NC(=O)CCC(=O)NCCCOCCOCCOCCCN*; X3 = O=C(O)CN1CCN(CC(=O)O)CCN(CC(=O)NCCCOCCOCCOCCCN*)CCN(CC(=O)O)CC1; Tyr(3-I) = N[C@@H](Cc1ccc(O)c(I)c1)C(=O)O; Pro(4,4-F2) = O=C(O)[C@@H]1CC(F)(F)CN1; Arg(Me) = CNC(=N)NCCC[C@H](N)C(=O)O; Lys(Me) = CNCCCC[C@H](N)C(=O)O; Suc = O=C(CCC(=O)[*:2])[*:1]; Tle = CC(C)(C)[C@H](N)C(=O)O; Hexanoyl = CCCCCC(=O)*; Aib = CC(C)(N)C(=O)O; X8 = O=C(CC1CCNCC1)*; CH2 = C([*:1])[*:2]

Key:
[1] = target: T1, Fc-fusion protein of human PSMA (hPSMA-Fc) (Homo sapiens, UniProt Q04609); assay: Surface plasmon resonance assay (Biacore T200, single cycle kinetic); type: binding
T1 construct: purchased Acro Biosystems PSA-H5264
T1 sequence (Q04609 44-750 limits assumed): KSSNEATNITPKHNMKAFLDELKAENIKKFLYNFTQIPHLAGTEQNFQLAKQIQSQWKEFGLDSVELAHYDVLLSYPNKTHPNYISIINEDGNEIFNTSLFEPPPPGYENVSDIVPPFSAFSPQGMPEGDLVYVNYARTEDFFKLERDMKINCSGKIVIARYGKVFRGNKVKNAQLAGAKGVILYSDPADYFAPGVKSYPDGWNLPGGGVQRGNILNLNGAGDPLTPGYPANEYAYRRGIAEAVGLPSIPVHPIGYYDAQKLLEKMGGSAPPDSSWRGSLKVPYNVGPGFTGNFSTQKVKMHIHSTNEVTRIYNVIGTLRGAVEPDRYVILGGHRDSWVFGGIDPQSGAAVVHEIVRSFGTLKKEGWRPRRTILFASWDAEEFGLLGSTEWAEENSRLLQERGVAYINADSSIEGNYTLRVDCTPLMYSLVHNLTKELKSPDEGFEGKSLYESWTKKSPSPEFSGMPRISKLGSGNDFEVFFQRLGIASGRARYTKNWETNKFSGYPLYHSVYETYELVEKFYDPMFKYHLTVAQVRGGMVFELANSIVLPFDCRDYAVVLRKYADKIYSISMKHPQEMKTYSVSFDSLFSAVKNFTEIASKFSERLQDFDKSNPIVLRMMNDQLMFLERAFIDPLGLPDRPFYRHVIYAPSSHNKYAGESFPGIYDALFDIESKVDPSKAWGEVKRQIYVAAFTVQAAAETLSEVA
Method in brief: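 hPSMA-Fc was captured (~1000 RU) on an Fc-binding-peptide CM5 chip, and compounds were run in single cycle kinetic mode at 25° C in HBST with 0.1% DMSO. Double-blank-corrected sensorgrams were fitted to a 1:1 Langmuir model to give KD, reported as pKD.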

[2] = target: T2, PSMA-expressing C4-2 cells (Homo sapiens, UniProt Q04609); assay: FACS binding assay (competition with 50 nM PSM-0183)
T2 construct: PSMA-expressing C4-2 cells (ATCC, Cat. No. CRL-3314) were cultured in RPMI-1640; host or cells: C4-2 cells
T2 sequence (Q04609 whole entry): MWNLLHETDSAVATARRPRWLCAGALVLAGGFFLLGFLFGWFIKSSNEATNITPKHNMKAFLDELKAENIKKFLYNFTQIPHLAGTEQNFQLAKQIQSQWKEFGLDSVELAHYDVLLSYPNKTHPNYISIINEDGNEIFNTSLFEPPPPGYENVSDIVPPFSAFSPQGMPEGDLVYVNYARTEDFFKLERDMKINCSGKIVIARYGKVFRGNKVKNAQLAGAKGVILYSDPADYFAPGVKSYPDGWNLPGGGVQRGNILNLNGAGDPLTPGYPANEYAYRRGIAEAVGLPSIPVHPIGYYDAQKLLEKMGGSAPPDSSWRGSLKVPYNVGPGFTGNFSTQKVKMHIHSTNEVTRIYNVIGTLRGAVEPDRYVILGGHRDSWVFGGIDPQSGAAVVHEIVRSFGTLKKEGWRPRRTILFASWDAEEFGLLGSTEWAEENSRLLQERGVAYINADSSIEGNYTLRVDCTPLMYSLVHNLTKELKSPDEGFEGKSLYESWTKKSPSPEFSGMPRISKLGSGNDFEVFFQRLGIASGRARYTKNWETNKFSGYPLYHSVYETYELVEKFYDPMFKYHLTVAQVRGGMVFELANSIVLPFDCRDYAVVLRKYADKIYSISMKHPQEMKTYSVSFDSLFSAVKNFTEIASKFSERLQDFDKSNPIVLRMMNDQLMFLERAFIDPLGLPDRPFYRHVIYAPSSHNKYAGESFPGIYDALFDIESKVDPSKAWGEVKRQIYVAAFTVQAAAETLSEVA
Method in brief: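 C4-2 cells were incubated 1 h at 4 °C with 50 nM AF488-labelled peptide PSM-0183 plus increasing test compound concentrations, then washed twice in ice-cold buffer. Median fluorescence in the AF488 channel was read by flow cytometry. IC50/pIC50 was derived by 4PL fitting of MFI versus concentration.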

[3] = PSMA SPR assay, hPSMA-Fc, 25° C., pKD category, read-out: pKD CAT (converted)
[4] = FACS binding, PSMA-expressing C4-2 cells, pIC50 category, read-out: pIC50 [C4-2] CAT (converted)
[5] = PSMA SPR assay, category, read-out: pKD CAT (converted)
[6] = FACS binding, C4-2 cells, category, read-out: pIC50 [C4-2] CAT (converted)

## CC(=O)N[C@H](C(=O)NC(C)(C)C(=O)N[C@@H](Cc1ccccc1)C(=O)N[C@H]1CSSC[C@@H](C(=O)N[C@H](C(=O)N[C@H](C(=O)N[C@@H](CC(=O)O)C(N)=O)[C@@H](C)O)C(C)(C)C)NC(=O)[C@H](CC(N)=O)NC(=O)[C@@H]2CC(F)(F)CN2C(=O)[C@H](CCCNC(=N)N)NC(=O)[C@H](CCCCN)NC1=O)[C@@H](C)O [PSM-0217, Ac-Thr-Aib-Phe-[Cys-Lys-Arg-Dfp-Asn-Cys]-Tle-Thr-Asp-NH2] (Ac-T[Aib]FCKR[Pro(4,4-F2)]NC[Tle]TD-NH2; disulfide 4-9)
[1]
  Kd: 12.6 to 126 nM
[2]
  IC50: < 200 nM

## CC(=O)N[C@@H](C)C(=O)N[C@@H](Cc1ccccc1)C(=O)N[C@H]1CSSC[C@@H](C(=O)N[C@@H](CC(C)C)C(=O)N[C@H](C(=O)N[C@@H](CC(=O)O)C(=O)NCCCOCCOCCOCCCNC(=O)CCC(=O)N[C@H](CCCCNC(=O)CN2CCN(CC(=O)O)CCN(CC(=O)O)CCN(CC(=O)O)CC2)C(N)=O)[C@@H](C)O)NC(=O)[C@H](CC(N)=O)NC(=O)[C@H](C)NC(=O)[C@H](CCCNC(=N)N)NC(=O)[C@H](CCCCN)NC1=O [PSM-0299, Ac-Ala-Phe-[Cys-Lys-Arg-Ala-Asn-Cys]-Leu-Thr-Asp-Ttds-lys(DOTA)-NH2] (Ac-AFCKRANCLTD-{TtdsdLys(DOTA)NH2}; disulfide 3-8)
[1]; [3]
  Kd: 12.6 to 126 nM
[2]; [4]
  IC50: 1260 to 3160 nM

## CC(=O)N[C@H](C(=O)NC(C)(C)C(=O)N[C@@H](Cc1ccccc1)C(=O)N[C@H]1CSCSC[C@@H](C(=O)N[C@H](C(=O)N[C@H](C(=O)N[C@@H](CC(=O)O)C(N)=O)[C@@H](C)O)C(C)(C)C)NC(=O)[C@H](CC(N)=O)NC(=O)[C@H](C)NC(=O)[C@H](CCCNC(=N)N)NC(=O)[C@H](CCCCN)NC1=O)[C@@H](C)O [PSM-0567, Ac-Thr-Aib-Phe-[Smc-Lys-Arg-Ala-Asn-Cys]-Tle-Thr-Asp-NH2] (Ac-T[Aib]FCKRANC[Tle]TD-NH2; linker 4-9 via CH2)
[1]; [5]
  Kd: < 12.6 nM
[2]; [6]
  IC50: < 200 nM

## CCCCCC(=O)N[C@H](C(=O)N[C@@H](C)C(=O)N[C@@H](Cc1ccccc1)C(=O)N[C@H]1CSSC[C@@H](C(=O)N[C@H](C(=O)N[C@H](C(=O)N[C@@H](CC(=O)O)C(=O)NCCCOCCOCCOCCCNC(=O)CCC(=O)N[C@H](CCCCNC(=O)CN2CCN(CC(=O)O)CCN(CC(=O)O)CCN(CC(=O)O)CC2)C(N)=O)[C@@H](C)O)C(C)(C)C)NC(=O)[C@H](CC(N)=O)NC(=O)[C@H](C)NC(=O)[C@H](CCCNC(=N)N)NC(=O)[C@H](CCCCN)NC1=O)[C@@H](C)O [PSM-0568, Hex-Thr-Ala-Phe-[Cys-Lys-Arg-Ala-Asn-Cys]-Tle-Thr-Asp-Ttds-lys(DOTA)-NH2] (Hexanoyl-TAFCKRANC[Tle]TD-{TtdsdLys(DOTA)NH2}; disulfide 4-9)
[1]; [5]
  Kd: 12.6 to 126 nM
[2]; [6]
  IC50: < 200 nM

## C[C@@H](O)[C@H](NC(=O)CCC(=O)NCCCOCCOCCOCCCNC(=O)CN1CCN(CC(=O)O)CCN(CC(=O)O)CCN(CC(=O)O)CC1)C(=O)NC(C)(C)C(=O)N[C@@H](Cc1ccccc1)C(=O)N[C@H]1CSSC[C@@H](C(=O)N[C@H](C(=O)N[C@H](C(=O)N[C@@H](CC(=O)O)C(N)=O)[C@@H](C)O)C(C)(C)C)NC(=O)[C@H](CC(N)=O)NC(=O)C(C)(C)NC(=O)[C@H](CCCNC(=N)N)NC(=O)[C@H](CCCCN)NC1=O [PSM-0398, DOTA-Ttds-Thr-Aib-Phe-[Cys-Lys-Arg-Aib-Asn-Cys]-Tle-Thr-Asp-NH2] ({X3-Suc}-T[Aib]FCKR[Aib]NC[Tle]TD-NH2; disulfide 4-9)
[1]; pKD category for PSMA SPR activity assay, hPSMA-Fc, 25° C., read-out: pKD CAT (converted)
  Kd: < 12.6 nM
[2]; pIC50 category of FACS binding, C4-2 cells, read-out: pIC50 [C4-2] CAT (converted)
  IC50: < 200 nM

## CC(=O)N[C@H](C(=O)NC(C)(C)C(=O)N[C@@H](Cc1ccccc1)C(=O)N[C@H]1CSSC[C@@H](C(=O)N[C@H](C(=O)N[C@H](C(=O)N[C@@H](CC(=O)O)C(=O)NCCCOCCOCCOCCCNC(=O)CCC(=O)N[C@H](CCCCNC(=O)CN2CCN(CC(=O)O)CCN(CC(=O)O)CCN(CC(=O)O)CC2)C(N)=O)[C@@H](C)O)C(C)(C)C)NC(=O)[C@H](CC(N)=O)NC(=O)[C@H](C)NC(=O)[C@H](CCCNC(=N)N)NC(=O)[C@H](CCCCN)NC1=O)[C@@H](C)O [PSM-0295, Ac-Thr-Aib-Phe-[Cys-Lys-Arg-Ala-Asn-Cys]-Tle-Thr-Asp-Ttds-lys(DOTA)-NH2] (Ac-T[Aib]FCKRANC[Tle]TD-{TtdsdLys(DOTA)NH2}; disulfide 4-9)
[1]; [3]
  Kd: < 12.6 nM
[2]; [4]
  IC50: < 200 nM

## CNCCCC[C@@H]1NC(=O)[C@@H](NC(=O)[C@H](Cc2ccc(O)c(I)c2)NC(=O)C(C)(C)NC(=O)[C@@H](NC(=O)CC2CCNCC2)[C@@H](C)O)CSSC[C@@H](C(=O)N[C@H](C(=O)N[C@H](C(N)=O)[C@@H](C)O)C(C)(C)C)NC(=O)[C@H](CC(N)=O)NC(=O)C(C)(C)NC(=O)[C@H](CCCNC(=N)NC)NC1=O [PSM-0192, H-Cmp-Thr-Aib-Miy-[Cys-Lys(Me)-Arg(Me)-Aib-Asn-Cys]-Tle-Thr-NH2] (X8-T[Aib][Tyr(3-I)]C[Lys(Me)][Arg(Me)][Aib]NC[Tle]T-NH2; disulfide 4-9)
[1]; SPR, hPSMA-Fc, single cycle kinetic, 25° C., category, read-out: pKD CAT (converted)
  Kd: > 501 nM
[2]; FACS binding, C4-2 cells, competition with 50 nM PSM-0183, category, read-out: pIC50 [C4-2] CAT (converted)
  IC50: > 3160 nM
